From patent US20250346634A1, “CYCLIC PEPTIDES FOR TARGETING EPIDERMAL GROWTH FACTOR RECEPTOR AND MUTATIONS THEREOF FOR DRUG DELIVERY” (priority 2022, published 2025)
Where two headings read alike, the source gives them in different places. Bridge positions count the residues as written; N and C are the ends. Square brackets hold non-standard residues; d marks the D form. Peptide text beside a SMILES is read from it. * marks the point of attachment. Camptothecin(20S-OCO) = CC[C@@]1(OC(=O)*)C(=O)OCc2c1cc1n(c2=O)Cc2cc3ccccc3nc2-1; FITC = O=C1OC2(c3ccc(O)cc3Oc3cc(O)ccc32)c2ccc(NC(=S)*)cc21; Abu = CC[C@H](N)C(=O)O; GABA = NCCCC(=O)O

What was measured:
[1] = Stability of peptide-drug conjugates in complete growth medium (LC-MS); type: in vitro ADME; conditions: RPMI and DMEM complete growth medium, 37° C., read-out: half-life of degradation
Description: At each time point, 10 μl of sample was taken and mixed with 25 μl ACN/H2O (1:1, v.v.). The samples were centrifuged at 1,400 rpm for 15 min. Supernatants were collected, filtered and analyzed by liquid chromatography mass spectrometry (LC-MS).
The stability of P6-CPT and P9-CPT was measured in RPMI and DMEM complete growth medium at 37° C. for 0 h, 0.5 h, 3 h, 7 h, 24 h, 48, and 72 h. The degradation of the conjugates and the CPT release was analyzed by LC-MS. The stability of these conjugates and drug release rates were similar.

[2] = test system: H1299 cells; experiment: XTT cytotoxicity assay on H1299 cells; type: cell-based
Description: (§1) Cell growth in the presence of PDCs was measured by a commercial XTT assay kit (Cell Proliferation Kit, XTT based; Biological Industries, Israel). The cells (10^4 cells/well) were seeded in 96 well plates and incubated overnight in complete growth medium. The cells were washed and then cultured in 100 μl of new medium containing various concentrations of drug or peptides, for 24 h, 48 h, and 72 h. The XTT solution was added to each well and the plate was further incubated 2-3 h at 37° C. The optical density in the wells was measured at both 480 nm and 680 nm using a TECAN Infinite M200 ELISA reader. All the tests were done in triplicates, and each experiment was repeated three times.
(§2) The cytotoxicity of the Peptide-Drug conjugates (PDCs) was tested in a range of concentrations (0.5-50 μM) against H1299 and DKMG cells using two protocols. In the first protocol, cells were pre-incubated with P6, P9, P6-CPT, and P9-CPT for 6 hours, the medium was removed, and a fresh, drug-free complete medium was added for additional 24 h (designated as 6h24h) or 48 h (6h48h). In the second protocol, cells were exposed continuously to PDCs for 24 h, 48 h, and 72 hours.

[3] = test system: DKMG cells; experiment: XTT cytotoxicity assay on DKMG cells; type: cell-based
Description: as §1, §2

[4] = test system: H1299, H1975 and DKMG cells; experiment: Phage display biopanning with NGS, selection of EGFR-specific peptides; type: cell-based; conditions: 3 rounds of biopanning, K562-derived sequences excluded
Description: A heptapeptide phage display library (Ph.D.-C7C Phage Display Library Kit, New England Biolabs, USA) was used for the in vitro biopanning experiments. All cell lines were individually incubated with phages from the stock library. […] Adherent cells (H1299, […] and DKMG) were plated at a density of 10^5 cells/ml in a 6-well plate. When the culture reached 80% confluence, the first well was incubated with phage library (10^11 pfu/10 μl) for 1 h at 37° C. with gentle stirring. The medium containing unbound phage was collected and transferred to the second, similar well and incubated again. The procedure was repeated with the third well. Cells in the third wells were washed four times with 0.5% Tween-20 in PBS. Then, 0.5 ml of elution buffer (0.2 M glycine-HCl, pH 2.2) was added and incubated for 10 min at 4° C.; the pH was neutralized by addition of 75 μl of 1 M Tris-HCl buffer, pH 9.0. The supernatant containing cell surface binding phage was collected. The cells were then lysed by incubation for 1 h at 4° C. with 2 ml of 30 mM Tris-HCl and 1 mM EDTA, pH 8.0. The medium was collected and centrifuged at 1,500 rpm for 5 min and the supernatant containing cell-internalized phage was transferred to a new tube. The internalized and surface-bound phages were amplified according to the manufacturer's instructions. An aliquot of the phages was retained for sequencing (see below) and the remainder was subjected to two additional rounds of biopanning. […]
Finally, two groups of peptides were constructed; the first included sequences that were present in all three EGFR+ve cell lines and included about 416 sequences; the second was divided into three subgroups, one for each cell line, wherein the subgroup for H1299 included some 1666 sequences, the subgroup for H1975 included some 10437 sequences, the subgroup for DKMG included some 981 sequences. From this list, top eleven S—S bridged cyclic peptides sequences were selected by their count in the sequencing data (the highest number of reads). […]

[5] = test system: EGFR+ve cells (H1299, DKMG) versus K562 cells; experiment: Flow cytometry internalization of peptide-FITC conjugates; type: cell-based; conditions: 2.5 μM FITC-labeled peptide
Description: Analysis was done with FACS cell analyzer.

[6] = test system: H1299 tumor (EGFR positive) versus K562 tumor (EGFR negative); experiment: In vivo targeting in mice with dual H1299 and K562 xenografts; conditions: nude mice, tail vein, 100 μg
Description: Animal protocols were approved by the Institutional Animal Care and Use Committee at Ariel university Israel. Nude mice were injected with either H1299 cells in the right flank and with K562 cells in the left flank, so that each mouse bore either dual H1299 and K562 xenografts. When tumors reached, 100 mm^3 mice were injected via tail vein with 100 μg of FITC-labeled cyclic peptide, according to some embodiments of the present invention, and imaged using IVIS® SpectrumCT 8- and 24-hours post injection. Immediately afterwards, the mice were sacrificed for ex vivo imaging of organs.
Signal from the targeted tumor compared to other tissues was determined for each animal.

[7] = test system: H1299, DKMG and K562 cells; experiment: Flow cytometry binding of peptide-FITC conjugates; type: cell-based; conditions: 2.5 μM FITC-labeled peptide
Description: Cells with 80-90% confluence were incubated with 2.5 μM FITC-conjugated peptides in RPMI-5% FBS for 1 h at 37° C. Cells were scrapped from the culture flask and washed twice with 2 ml FCSB.
This concentration was chosen based on preliminary dose dependence study.

[8] = molecular target: T1, epidermal growth factor receptor (EGFR), wild type (human, UniProt P00533 25-1210); experiment: confocal microscopy, 25 uM FITC-peptide, 3 h, H1299 cells
T1 construct: whole, on cells; The target is inferred from tumour cell lines that overexpress EGFR, compared with EGFR-negative cells; No purified receptor was used; also called EGFRWT; EGFR WT

[9] = molecular target: T2, EGFR variant III (EGFRvIII), on DKMG glioblastoma cells (human, UniProt P00533 25-1210); experiment: flow cytometry, 2.5 uM FITC-peptide on DKMG cells (EGFR WT and EGFRvIII)
T2 construct: whole, on cells; DKMG cells express both wild type EGFR (92% of cells) and EGFRvIII (82%); All results on DKMG cells are written against this molecule; also called EGFR mutant; EGFRVIII DKMG

[10] = H1299, 6 w 48 h (6 h pre-incubation, then 48 h drug-free medium)
[11] = H1299, 24 h continuous exposure
[12] = H1299, 48 h continuous exposure
[13] = H1299, first protocol (6 h pre-incubation), up to 48 h
[14] = H1299, second protocol, continuous exposure
[15] = H1299, 72 h continuous exposure

| Molecule | half-life [1] [h] | IC50 [2, 10] [µM] | IC50 [2, 11] [µM] | IC50 [2, 12] [µM] | cytotoxicity [2, 13] | cytotoxicity [2, 14] | IC50 ([3]; 24 h continuous exposure) [µM] | IC50 ([3]; 48 h continuous exposure) [µM] | IC50 ([3]; 72 h continuous exposure) [µM] | IC50 [2, 15] [µM] | further results |
| --- | --- | --- | --- | --- | --- | --- | --- | --- | --- | --- | --- |
| CC[C@H](C)[C@@H]1NC(=O)[C@H](Cc2ccc(O)cc2)NC(=O)[C@H](CO)NC(=O)CNC(=O)[C@@H]2CCCN2C(=O)[C@H](C(C)C)NC(=O)[C@H](Cc2cnc[nH]2)NC(=O)[C@@H](NC(=O)CCCNC(=O)O[C@]2(CC)C(=O)OCc3c2cc2n(c3=O)Cc3cc4ccccc4nc3-2)CSSC[C@@H](C(N)=O)NC1=O [Peptide P6-CPT] ({Camptothecin(20S-OCO)-GABA}-CHVPGSYIC-NH2; disulfide 1-9) | 6 to 7 | 32 | 14.5 | 5.5 | exhibited cytotoxic effect after 48 h | observed after 24 hours post exposure |  |  |  |  |  |
| CSCC[C@@H]1NC(=O)[C@H](C)NC(=O)[C@H](CC(N)=O)NC(=O)[C@H](C(C)C)NC(=O)[C@@H](N)CSSC[C@@H](C(N)=O)NC(=O)[C@H](Cc2ccc(O)cc2)NC(=O)[C@H](CO)NC(=O)[C@H](CCC(N)=O)NC1=O [Peptide P9] (H-CVNAMQSYC-NH2; disulfide 1-9) |  |  | 22.3 ± 0.2 | 27.3 ± 1.7 |  |  | 16.4 ± 1.9 | 17.5 ± 2.3 | 17.5 ± 1.6 | 22.5 | cytotoxicity [2]: did not demonstrate cytotoxicity; Cell line (peptide specificity per cell line; source of the cells from which the peptide was identified) [4]: DKMG |
| C[C@@H]1NC(=O)[C@@H](NC(=O)CCCNC(=S)Nc2ccc3c(c2)C(=O)OC32c3ccc(O)cc3Oc3cc(O)ccc32)CSSC[C@@H](C(N)=O)NC(=O)[C@H](CCCNC(=N)N)NC(=O)CNC(=O)[C@@H]2CCCN2C(=O)[C@H]([C@@H](C)O)NC(=O)[C@H](Cc2ccc(O)cc2)NC(=O)[C@H](CCC(N)=O)NC1=O [FITC-labeled P11] ({FITC-GABA}-CAQYTPGRC-NH2; disulfide 1-9) |  |  |  |  |  |  |  |  |  |  | internalization (flow cytometry) [5]: internalized only into to EGFR+ve cells; accumulation in other organs ([6]; ex vivo imaging of organs): No significant accumulation; tumor accumulation ([6]; imaging 8 and 24 hours post injection): accumulates in the H1299 tumor compared to the K562 tumor; binding (flow cytometry) [7]: bind to H1299 and DKMG selectively but not to K562 cells |
| CC[C@@H]1NC(=O)[C@@H](NC(=O)CCCNC(=O)O[C@]2(CC)C(=O)OCc3c2cc2n(c3=O)Cc3cc4ccccc4nc3-2)CSSC[C@@H](C(N)=O)NC(=O)[C@H](Cc2ccc(O)cc2)NC(=O)[C@H](CO)NC(=O)[C@H](CCC(N)=O)NC(=O)[C@H](CCSC)NC(=O)[C@H](C)NC(=O)[C@H](CC(N)=O)NC1=O [Peptide P9-CPT] ({Camptothecin(20S-OCO)-GABA}-C[Abu]NAMQSYC-NH2; disulfide 1-9) | 6 to 7 | 21.5 ± 2.1 | 8.4 ± 0.5 | 2.2 ± 0.3 | exhibited cytotoxic effect after 48 h | observed after 24 hours post exposure | 6.76 | 2.7 ± 1 | 0.2 ± 0.1 | 1.2 ± 0.1 | IC50 ([3]; 6 w 48 h (6 h pre-incubation, then 48 h drug-free medium)): 32 ± 1.6 µM; cytotoxic effect ([3]; first protocol): noted after 48 hours; IC50 concentration higher compared to the free CPT ([3]; first protocol, 48 hours): 4 fold |
| {FITC-GABA}-CHVPGSYIC-NH2 (disulfide 1-9; SMILES CC[C@H](C)[C@@H]1NC(=O)[C@H](Cc2ccc(O)cc2)NC(=O)[C@H](CO)NC(=O)CNC(=O)[C@@H]2CCCN2C(=O)[C@H](C(C)C)NC(=O)[C@H](Cc2c[nH]cn2)NC(=O)[C@@H](NC(=O)CCCNC(=S)Nc2ccc3c(c2)C(=O)OC32c3ccc(O)cc3Oc3cc(O)ccc32)CSSC[C@@H](C(N)=O)NC1=O, also called FITC-P6; P6-FITC conjugate) [FITC-labeled cyclic peptide P6, c(CHVPGSYIC)] |  |  |  |  |  |  |  |  |  |  | binding result [8]: binds; binding result [9]: binds |
